Drawing on US20240391948A1, “NOVEL COMPOUND THAT INHIBITS TNF-ALPHA GENERATION AND INFLAMMASOME ACTIVITY AND PREPARATION METHOD THEREFOR” (SHAPERON INC., priority 2021, published 2024), this text covers IC50 for 14 compounds.

For experiment [1], the system named is U937 cells (human monocytic cell line). Nature of the experiment: BzATP-induced IL-1β secretion inhibition in PMA-differentiated U937 cells. The experiment is classed as cell-based. The note with it: U-937, U937 cells differentiated with PMA, read-out: IL-1β production inhibition grade (IC50). The protocol: (§1) To evaluate anti-inflammatory efficacy, U937 cells (human monocytic cell line) were differentiated into macrophages using PMA (phorbol 12-myristate 13-acetate) and then induced an inflammatory response with Pam2CSK4 (Pam2CysSerLys4) or BzATP (2′(3′)—O-(4-Benzoylbenzoyl)adenosine 5′-triphosphate), the efficacy of taurine-bile acid derivatives in suppressing inflammatory cytokine (IL-1β, TNF-α) production was measured.
(§2) Using PMA, U937 cells were differentiated into macrophages, and the extent of TNF-α secretion inhibition was measured in an experimental group where taurine-bile acid derivatives was treated, followed by induction of inflammatory response with Pam2CSK4, and in the experimental group in which an inflammatory response was induced with BzATP, the extent to which IL-1β secretion among cytokines was suppressed was measured.
(§3) The ability of taurine-bile acid derivatives to inhibit cytokine production was expressed in terms of IC50 (μM) values. The standards for TNF α inhibition ability are A: less than 0.5, B: 0.5 to less than 1.0, C: 1.0 to less than 2.0, D: 2.0 or more, and the IL-1β inhibition ability grade standards are A: less than 0.05, B: 0.05 to less than 0.10, C: 0.10 or more and less than 0.20, D: 0.20 or more.

Experiment [2] shares this test system. Nature of the experiment: Pam2CSK4-induced TNF-α secretion inhibition in PMA-differentiated U937 cells. The note with it: U-937, U937 cells differentiated with PMA, read-out: TNF-α production inhibition grade (IC50). The experiment is classed as cell-based. On the procedure: as §1, §2, §3

For `C[C@H](CCC(=O)NCCCO)[C@H]1CC[C@H]2[C@@H]3CC[C@@H]4C[C@H](O)CC[C@]4(C)[C@H]3C[C@H](O)[C@]12C` [NC10021], the half-inhibitory concentration (IC50) – broadly, the concentration needed to halve the response being measured – in experiment [1] lay in the range of 50 to 100 nM; in experiment [2] it was 1000 to 2000 nM.
The corresponding values for `C[C@H](CCC(=O)N(CCS(=O)(=O)O)C1CCOCC1)[C@H]1CC[C@H]2[C@@H]3CC[C@@H]4C[C@H](O)CC[C@]4(C)[C@H]3C[C@H](O)[C@]12C` [NC10025] are 50 to 100 nM and 1000 to 2000 nM.
On to `C[C@H](CCC(=O)N[C@H](CS(=O)(=O)O)c1ccccc1)[C@H]1CC[C@H]2[C@@H]3CC[C@@H]4C[C@H](O)CC[C@]4(C)[C@H]3C[C@H](O)[C@]12C` [NC10034], for which the half-inhibitory concentration (IC50) in experiment [1] lay in the range of 50 to 100 nM; in experiment [2], 500 to 1000 nM.
The matching figures for `C[C@H](CCC(=O)N(CCS(=O)(=O)O)Cc1cccnc1)[C@H]1CC[C@H]2[C@@H]3CC[C@@H]4C[C@H](O)CC[C@]4(C)[C@H]3CC[C@]12C` [NC10092]: 50 to 100 nM and no less than 2000 nM.
Take `C[C@H](CCC(=O)N(CCS(=O)(=O)O)c1ccccc1)[C@H]1CC[C@H]2[C@@H]3CC[C@@H]4C[C@H](O)CC[C@]4(C)[C@H]3CC[C@]12C` [NC10093]: the IC50 in experiment [1] is 100 to 200 nM; in experiment [2] it was no less than 2000 nM.
The matching figures for `C[C@H](CCC(=O)N(CCS(=O)(=O)O)Cc1ccccc1)[C@H]1CC[C@H]2[C@@H]3CC[C@@H]4CC(=O)CC[C@]4(C)[C@H]3CC[C@]12C` [NC30005]: no less than 200 nM and 500 to 1000 nM.
The matching figures for `CC(C)N(CCS(=O)(=O)O)C(=O)CC[C@@H](C)[C@H]1CC[C@H]2[C@@H]3CC[C@@H]4CC(=O)CC[C@]4(C)[C@H]3CC[C@]12C` [NC30007]: no less than 200 nM and less than 500 nM.
The matching figures for `C[C@H](CCC(=O)N1CCC[C@H]1CS(=O)(=O)O)[C@H]1CC[C@H]2[C@@H]3CC[C@@H]4CC(=O)CC[C@]4(C)[C@H]3CC[C@]12C` [NC30021]: 50 to 100 nM and 500 to 1000 nM.
Turning to `C[C@H](CCC(=O)N[C@@H](CO)CS(=O)(=O)O)[C@H]1CC[C@H]2[C@@H]3CC[C@@H]4CC(=O)CC[C@]4(C)[C@H]3CC[C@]12C` [NC30024], the IC50 was no less than 200 nM in experiment [1] and 1000 to 2000 nM in experiment [2].
Regarding `C[C@H](CCC(=O)N[C@@H]1CCCC[C@@H]1S(=O)(=O)O)[C@H]1CC[C@H]2[C@@H]3CC[C@@H]4CC(=O)CC[C@]4(C)[C@H]3CC[C@]12C` [NC30026], the 50% inhibitory concentration (IC50) in experiment [1] was no less than 200 nM; in experiment [2], less than 500 nM.
Turning to `C[C@H](CCC(=O)NC1(CS(=O)(=O)O)CC1)[C@H]1CC[C@H]2[C@@H]3CC[C@@H]4CC(=O)CC[C@]4(C)[C@H]3CC[C@]12C` [NC30032], the IC50 is no less than 200 nM in experiment [1] and 500 to 1000 nM in experiment [2].
The matching figures for `C[C@H](CCC(=O)N(CCS(=O)(=O)O)Cc1cccnc1)[C@H]1CC[C@H]2[C@@H]3CC[C@@H]4CC(=O)CC[C@]4(C)[C@H]3CC[C@]12C` [NC30036]: no less than 200 nM and 1000 to 2000 nM.
The corresponding values for `CC[C@H]1[C@@H](O)[C@@H]2[C@H](CC[C@]3(C)[C@@H]([C@H](C)CCC(=O)NCCCO)CC[C@@H]23)[C@@]2(C)CC[C@@H](O)C[C@@H]12` [NC40003] are no less than 200 nM and no less than 2000 nM.
The corresponding values for `CC[C@H]1[C@@H](O)[C@@H]2[C@H](CC[C@]3(C)[C@@H]([C@H](C)CCC(=O)N(CCS(=O)(=O)O)Cc4ccccc4)CC[C@@H]23)[C@@]2(C)CC[C@@H](O)C[C@@H]12` [NC40005] are no less than 200 nM and no less than 2000 nM.
